Source: patent US20200270309A1, “MALEIMIDE GROUP-MODIFIED ANGIOGENESIS INHIBITOR HM-1 AND USE THEREOF” (NANJING ANJI BIOLOGICAL TECHNOLOGY CO., LTD, priority 2017, published 2020)
Marks after values point to notes of the source that are not given here. Peptide text beside a SMILES is read from it. * marks the point of attachment. X46 = O=C1C=CC(=O)N1c1cccc(CCCCC(=O)*)c1; X75 = O=C1C=CC(=O)N1c1cccc(CC(=O)*)c1

Tests used:
[1] = tested on: xylene-induced ear swelling; assay: Xylene-induced mouse ear swelling; format: in vivo; details: Kunming mice, injected once a day for 5 days; for Swelling degree / Swelling degree (mg): right minus left ear piece weight 2 h after xylene; for Inhibition rate (%): xylene-induced ear swelling
How it was run: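 Ear pieces punched and weighed 2 h after xylene (0.05 mL, right ear only; left ear as normal) gave swelling degree (right − left weight) and swelling rate (degree/left weight ×100%). Kunming mice received injections daily for 5 consecutive days, xylene applied 1 h after final dose.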

[2] = tested on: collagen-induced arthritis; assay: Mouse collagen-induced arthritis (CIA) animal model; format: in vivo; details: DBA/1 mice CIA model, dose 4.0 mg/kg, subcutaneous from day 30, n=10; for Clinical score: highest score 16
[3] = tested on: retinal vascular endothelial nuclei; assay: Neovascularization in a rat model of premature retinopathy; format: in vivo, rats; details: dose 0.05 μM in the vitreous chamber from day 7 of modeling for one week; counted on day 14; oxygen-induced neonatal rats
How it was run: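 Newborn rats kept 7 d in chamber alternating 80% and 10% O2 every 24 h (23 °C), then room air. Intravitreal injection of test agents on day 7, saline for model and control; eyes taken day 14, HE-stained 4 μm sections. Endothelial nuclei breaching retinal inner limiting membrane counted, averaged per section per eye (10 sections).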

HUVECs = assay: Transwell migration inhibition on HUVECs; format: cell-based, human; details: for Inhibition rate (%): HUVEC migration vs blank control; for Cell migration number (Mean ± SD): HUVECs, transwell, 24 h
[4] = tested on: corneal neovascularization; assay: Corneal neovascularization induced by alkali burn in BALB/c mice; format: in vivo; set-up: Inhibition rate (corneal neovascularization): concentration or dose not given beside the values; details: day 14 after alkali burn, vitreous injection once a day for 1 week
[5] = tested on: IL-1β production by mouse peritoneal macrophages; assay: IL-1β production by mouse peritoneal macrophages (ELISA); format: cell-based; details: for Inhibition rate: IL-1β production, vs model group; for IL-1β: mouse peritoneal macrophages, 48 h, ELISA
How it was run: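 Peptides tested at three concentration levels on adherent peritoneal macrophages harvested from mice 3 days after i.p. 6% starch broth, plated at 2×10^6 cells/mL. After 48 h culture with Dex as reference, IL-1β in supernatants was quantified.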

[6] = tested on: retinal neovascularization (OIR model); assay: Retinal vessels in OIR mice; format: in vivo, C57/B16 mice; details: for Area of neovascular plexus (mm^2): dose 0.05 μM in the vitreous chamber on day 13, retinal vessels evaluated on day 17; for Inhibition rate (%): dose 0.05 μM in the vitreous chamber on day 13, retinal vessels evaluated on day 17, vs negative control
How it was run: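 C57/B16 pups were held in 75% oxygen from postnatal day 7 to 12, then returned to room air. On day 13 they received intravitreal saline or compound. On day 17 perfused vessels were labelled by Texas red tomato agglutinin injected into the left ventricle (5 min circulation) and retinal vasculature assessed.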

Structure (SMILES): C[C@H](NC(=O)CNC(=O)[C@H](CCCNC(=N)N)NC(=O)Cc1cccc(N2C(=O)C=CC2=O)c1)C(=O)N[C@@H](CC(=O)O)C(=O)N[C@@H](CCCNC(=N)N)C(=O)N[C@@H](C)C(=O)NCC(=O)NCC(=O)NCC(=O)NCC(=O)N[C@@H](CCCNC(=N)N)C(=O)NCC(=O)N[C@@H](CC(=O)O)C(=O)O [X25] (X75-RGADRAGGGGRGD-OH)
- Swelling degree ([1]; dose 2 mg/kg): 5.62 ± 0.64 mg
- Inhibition rate (%) ([1]; dose 2 mg/kg): 9.79%
- Swelling degree (mg) ([1]; dose 4 mg/kg): 4.45 ± 0.20* mg
- Inhibition rate (%) ([1]; dose 4 mg/kg): 28.57%
- Swelling degree (mg) ([1]; dose 8 mg/kg): 3.3 ± 0.06** mg
- Inhibition rate (%) ([1]; dose 8 mg/kg): 47.03%
- Joint swelling degree (mm) [2]: 0.71 ± 0.18 mm
- Left and right paw swelling degree (mm) [2]: 0.74 ± 0.14 mm
- Clinical score [2]: 9.21 ± 1.33
- Nuclei count (retinal vascular endothelial nuclei, average per section per eyeball) [3]: 8.923 ± 1.954
- Inhibition rate (%) (HUVECs; dose 0.05 μM): 48.06%
- Inhibition rate (%) (HUVECs; dose 0.1 μM): 52.24%
- Inhibition rate (%) (HUVECs; dose 0.2 μM): 58.00%
- Cell migration number (Mean ± SD) (HUVECs; dose 0.05 μM): 556.73 ± 40.91
- Cell migration number (Mean ± SD) (HUVECs; dose 0.1 μM): 511.9 ± 68.58
- Cell migration number (Mean ± SD) (HUVECs; dose 0.2 μM): 450.13 ± 52.7
- Inhibition rate (corneal neovascularization) [4]: 52.90%
- MVD (corneal microvessel density) [4]: 31.67 ± 6.856
- Inhibition rate ([5]; dose 0.05 μM): 20.57%
- IL-1β ([5]; dose 0.05 μM): 747.54 ± 18.25 pg/mL
- Inhibition rate ([5]; dose 0.1 μM): 24.22%
- IL-1β ([5]; dose 0.1 μM): 713.21 ± 19.17 pg/mL
- Inhibition rate ([5]; dose 0.2 μM): 29.89%
- IL-1β ([5]; dose 0.2 μM): 659.86 ± 10.24 pg/mL
- Area of neovascular plexus (mm^2) [6]: 0.096 ± 0.012 mm^2
- Inhibition rate (%) [6]: 54.72%**

Structure (SMILES): C[C@H](NC(=O)CNC(=O)[C@H](CCCNC(=N)N)NC(=O)CCCCc1cccc(N2C(=O)C=CC2=O)c1)C(=O)N[C@@H](CC(=O)O)C(=O)N[C@@H](CCCNC(=N)N)C(=O)N[C@@H](C)C(=O)NCC(=O)NCC(=O)NCC(=O)NCC(=O)N[C@@H](CCCNC(=N)N)C(=O)NCC(=O)N[C@@H](CC(=O)O)C(=O)O [X28] (X46-RGADRAGGGGRGD-OH)
- Swelling degree (mg) ([1]; dose 2 mg/kg): 5.25 ± 0.56** mg
- Inhibition rate (%) ([1]; dose 2 mg/kg): 33.87%
- Swelling degree ([1]; dose 4 mg/kg): 4.86 ± 0.63 mg
- Inhibition rate (%) ([1]; dose 4 mg/kg): 15.73%
- Swelling degree (mg) ([1]; dose 8 mg/kg): 4.12 ± 0.93* mg
- Inhibition rate (%) ([1]; dose 8 mg/kg): 21.99%
- Joint swelling degree (mm) [2]: 0.72 ± 0.18 mm
- Left and right paw swelling degree (mm) [2]: 0.73 ± 0.18 mm
- Clinical score [2]: 8.83 ± 1.26
- Nuclei count (retinal vascular endothelial nuclei, average per section per eyeball) [3]: 9.261 ± 3.879
- Inhibition rate (%) (HUVECs; dose 0.05 μM): 43.01%
- Inhibition rate (%) (HUVECs; dose 0.1 μM): 52.75%
- Inhibition rate (%) (HUVECs; dose 0.2 μM): 53.13%
- Inhibition rate (corneal neovascularization) [4]: 46.59%
- MVD (corneal microvessel density) [4]: 35.91 ± 4.891
- Inhibition rate ([5]; dose 0.05 μM): 15.78%
- IL-1β ([5]; dose 0.05 μM): 792.64 ± 11.74 pg/mL
- Inhibition rate ([5]; dose 0.1 μM): 31.90%
- IL-1β ([5]; dose 0.1 μM): 640.89 ± 14.7 pg/mL
- Inhibition rate ([5]; dose 0.2 μM): 32.28%
- IL-1β ([5]; dose 0.2 μM): 637.34 ± 10.85 pg/mL
- Area of neovascular plexus (mm^2) [6]: 0.088 ± 0.004 mm^2
- Inhibition rate (%) [6]: 58.49%**
